Article PMC6934184, “Selective DNA-PKcs inhibition extends the therapeutic index of localized radiotherapy and chemotherapy” (The Journal of Clinical Investigation, 2019)

Target: T1, PAK2 (PAK65) (Homo sapiens, UniProt Q13177)
T1 construct: purchased Thermo Fisher Scientific (Life Technologies) SelectScreen
Test: SelectScreen Z'LYTE
Format: biochemical
Summary of the method: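 SelectScreen broad panel; activity (Z'LYTE, Adapta) plus binding formats. ATP: Km app for CSF1R Z'LYTE; 10 for CAMK1 Adapta. Readout = % per kinase.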

T1 sequence (Q13177 whole entry): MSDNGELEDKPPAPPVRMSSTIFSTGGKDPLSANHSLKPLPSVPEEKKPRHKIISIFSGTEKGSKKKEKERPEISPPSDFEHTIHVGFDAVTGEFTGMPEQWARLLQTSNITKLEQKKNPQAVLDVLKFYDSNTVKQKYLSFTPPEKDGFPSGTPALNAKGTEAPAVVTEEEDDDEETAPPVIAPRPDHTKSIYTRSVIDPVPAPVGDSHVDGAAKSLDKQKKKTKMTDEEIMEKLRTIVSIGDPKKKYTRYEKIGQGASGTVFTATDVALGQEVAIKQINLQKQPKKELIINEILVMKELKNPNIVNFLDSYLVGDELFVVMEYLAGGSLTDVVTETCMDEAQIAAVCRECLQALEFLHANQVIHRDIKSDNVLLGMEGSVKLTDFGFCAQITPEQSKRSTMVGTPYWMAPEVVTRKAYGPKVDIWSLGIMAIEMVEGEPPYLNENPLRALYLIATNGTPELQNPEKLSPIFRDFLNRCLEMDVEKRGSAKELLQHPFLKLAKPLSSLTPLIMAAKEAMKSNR

SMILES: CN(C(=O)CN1CCOCC1)c1ccc2sc3c(-c4cccc5c(=O)cc(N6CC7CCC(C6)O7)oc45)cccc3c2c1 [NU5455]
- inhibition at 1 µM: 4%
